≈ marks a conversion by molar mass, not a printed value. Square brackets hold non-standard residues; d marks the D form. Peptide text beside a SMILES is read from it.
System: multi-drug resistant (MDR) strain (MDR-TB, clinical isolate)
Details: microdilution broth, 96-well, 2 × 10^5 CFU/mL, 37 °C 14 days, resazurin 48 h; conducted twice with three technical replicates each

Row | Structure (SMILES) | MIC in µg/mL, MDR-TB [µg/mL]
1 | CC[C@@H](C)[C@@H](NC(=O)[C@@H](CCCCN)NC(=O)[C@H](N)Cc1c[nH]c2ccccc12)C(=O)N[C@@H](C(=O)N[C@H](Cc1ccccc1)C(=O)NCC(=O)N[C@H](Cc1c[nH]c2ccccc12)C(=O)N[C@H](CCCNC(=N)N)C(=O)N[C@H](CCCNC(=N)N)C(N)=O)C(C)C [wkivfGwrr] (H-[dW][dK][dI][dV][dF]G[dW][dR][dR]-NH2; N-terminus assumed) | 20 (≈ 16 µM)
2 | CC[C@@H](C)[C@@H](NC(=O)[C@@H](CCCCN)NC(=O)[C@H](N)Cc1c[nH]c2ccccc12)C(=O)N[C@@H](C(=O)N[C@H](Cc1ccccc1)C(=O)N[C@H](CC(N)=O)C(=O)N[C@H](Cc1c[nH]c2ccccc12)C(=O)N[C@H](CCCNC(=N)N)C(=O)N[C@H](CCCNC(=N)N)C(N)=O)C(C)C [wkivfnwrr] (H-[dW][dK][dI][dV][dF][dN][dW][dR][dR]-NH2; N-terminus assumed) | 20 (≈ 15.3 µM)
3 | CC[C@@H](C)[C@@H](NC(=O)[C@@H](CCCCN)NC(=O)[C@H](N)Cc1c[nH]c2ccccc12)C(=O)N[C@@H](C(=O)N[C@H](Cc1ccccc1)C(=O)N[C@H](CC(=O)O)C(=O)N[C@H](Cc1c[nH]c2ccccc12)C(=O)N[C@H](CCCNC(=N)N)C(=O)N[C@H](CCCNC(=N)N)C(N)=O)C(C)C [wkivfdwrr] (H-[dW][dK][dI][dV][dF][dD][dW][dR][dR]-NH2) | 20 (≈ 15.3 µM)
4 | CC[C@@H](C)[C@@H](NC(=O)[C@@H](CCCCN)NC(=O)[C@H](N)Cc1c[nH]c2ccccc12)C(=O)N[C@@H](C(=O)N[C@H](Cc1ccccc1)C(=O)N[C@H](Cc1c[nH]c2ccccc12)C(=O)N[C@H](Cc1c[nH]c2ccccc12)C(=O)N[C@H](CCCNC(=N)N)C(=O)N[C@H](CCCNC(=N)N)C(N)=O)C(C)C [peptide 14D] (H-[dW][dK][dI][dV][dF][dW][dW][dR][dR]-NH2) | >50
5 | CC[C@@H](C)[C@@H](NC(=O)[C@@H](CCCCN)NC(=O)[C@H](N)Cc1c[nH]c2ccccc12)C(=O)N[C@H](CO)C(=O)N[C@H](Cc1ccccc1)C(=O)N[C@H](Cc1c[nH]c2ccccc12)C(=O)N[C@H](Cc1c[nH]c2ccccc12)C(=O)N[C@H](CCCNC(=N)N)C(=O)N[C@H](CCCNC(=N)N)C(N)=O [wkisfwwrr] (H-[dW][dK][dI][dS][dF][dW][dW][dR][dR]-NH2; N-terminus assumed) | 20 (≈ 14.7 µM)

From publication PMC10819809 (Microorganisms, 2024)
